Our source for the IC50 values is BindingDB's records for patent US20130102619 (2013).

The experiment deals with T1, Orexin receptor type 2 (Homo sapiens, UniProt O43614).
T1 sequence (O43614 whole entry): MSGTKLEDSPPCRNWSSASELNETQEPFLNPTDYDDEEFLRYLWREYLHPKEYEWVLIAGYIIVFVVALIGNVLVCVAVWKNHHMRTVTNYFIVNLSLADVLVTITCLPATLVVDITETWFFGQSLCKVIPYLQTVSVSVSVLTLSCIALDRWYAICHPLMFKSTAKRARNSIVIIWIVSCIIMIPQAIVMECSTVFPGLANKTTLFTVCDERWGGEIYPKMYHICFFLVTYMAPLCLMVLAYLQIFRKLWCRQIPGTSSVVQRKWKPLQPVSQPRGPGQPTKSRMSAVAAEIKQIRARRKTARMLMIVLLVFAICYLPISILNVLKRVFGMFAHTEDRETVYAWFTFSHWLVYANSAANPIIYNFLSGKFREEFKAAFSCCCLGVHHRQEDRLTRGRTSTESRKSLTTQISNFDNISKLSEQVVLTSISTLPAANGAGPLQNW
As to the kind of experiment: FLIPR Ca2+ Flux Assay. Particulars: 37 °C. The procedure: Chinese hamster ovary (CHO) cells expressing the rat orexin-1 receptor or the human orexin-2 receptor, are grown in Iscove's modified DMEM containing 2 mM L-glutamine, […], 1% hypoxanthine-thymidine supplement, 100 U/ml penicillin, 100 ug/ml streptomycin and 10% heat-inactivated fetal calf serum (FCS). The cells are seeded at 20,000 cells/well into Becton-Dickinson black 384-well clear bottom sterile plates coated with poly-D-lysine. All reagents were from GIBCO-Invitrogen Corp. The seeded plates are incubated overnight at 37° C. and 5% CO2. Ala-6,12 human orexin-A as the agonist is prepared as a 1 mM stock solution in 1% bovine serum albumin (BSA) and diluted in assay buffer (HBSS containing 20 mM HEPES, 0.1% BSA and 2.5 mM probenecid, pH7.4) for use in the assay at a final concentration of 70 pM. Test compounds are prepared as 10 mM stock solution in DMSO, then diluted in 384-well plates, first in DMSO, then assay buffer. On the day of the assay, cells are washed 3 times with 100 ul assay buffer and then incubated for 60 min (37° C., 5% CO2) in 60 ul assay buffer containing 1 uM Fluo-4AM ester, 0.02% pluronic acid, and 1% BSA. The dye loading solution is then aspirated and cells are washed 3 times with 100 ul assay buffer. 30 ul of that same buffer is left in each well. Within the Fluorescent Imaging Plate Reader (FLIPR, Molecular Devices), test compounds are added to the plate in a volume of 25 ul, incubated for 5 min and finally 25 ul of agonist is added. Fluorescence is measured for each well at 1 second intervals for 5 minutes and the height of each fluorescence peak is compared to the height of the fluorescence peak induced by 70 pM Ala-6,12 orexin-A with buffer in place of antagonist.

As for `C[C@@H]1CC[C@@H](Oc2cc(C#N)ccn2)CN1C(=O)c1ccccc1-n1nccn1` [US20130102619, 1], it took 12 nM to reach half-maximal inhibition (IC50). `Cc1nc(-c2ccccc2C(=O)N2C[C@H](Oc3cc(C#N)ccn3)CC[C@H]2C)no1` [US20130102619, 3]: the half-inhibitory concentration (IC50) was found to be 18 nM. Take `C[C@@H]1CC[C@@H](Oc2cc(C#N)ccn2)CN1C(=O)c1ccccc1-c1ncccn1` [US20130102619, 2]: the IC50 is 28 nM.
